Experimental data taken from paper PMC4906895, “Clonorchis sinensis omega-class glutathione transferases play major roles in the protection of the reproductive system during maturation and the response to oxidative stress” (Parasites & Vectors, 2016).
Like-named read-outs stand apart in the source and are kept apart here.

What was measured:
[1] = biological target: T1, Clonorchis sinensis omega-class glutathione transferase 2 (CsGSTo2) (Clonorchis sinensis, UniProt G7YE46); experiment: spectrophotometric GST activity of purified enzyme (specific activity); type: biochemical
T1 construct: gene CLF_105746; full-length recombinant (223 amino acids), His-tag removed; GenBank KX163089
T1 sequence (G7YE46 1-223): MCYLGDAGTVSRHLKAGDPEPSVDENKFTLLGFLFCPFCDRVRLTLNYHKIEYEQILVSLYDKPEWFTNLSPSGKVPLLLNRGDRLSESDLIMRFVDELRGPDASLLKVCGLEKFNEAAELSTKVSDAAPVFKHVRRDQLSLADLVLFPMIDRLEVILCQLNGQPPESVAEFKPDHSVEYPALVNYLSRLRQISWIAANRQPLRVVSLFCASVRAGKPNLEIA

[2] = biological target: T2, Clonorchis sinensis omega-class glutathione transferase 1 (CsGSTo1) (Clonorchis sinensis, UniProt A0A192IBN1); experiment: as above; type: biochemical
T2 construct: full-length recombinant (246 amino acids), His-tag removed; GenBank KX163088
T2 sequence (A0A192IBN1 1-246): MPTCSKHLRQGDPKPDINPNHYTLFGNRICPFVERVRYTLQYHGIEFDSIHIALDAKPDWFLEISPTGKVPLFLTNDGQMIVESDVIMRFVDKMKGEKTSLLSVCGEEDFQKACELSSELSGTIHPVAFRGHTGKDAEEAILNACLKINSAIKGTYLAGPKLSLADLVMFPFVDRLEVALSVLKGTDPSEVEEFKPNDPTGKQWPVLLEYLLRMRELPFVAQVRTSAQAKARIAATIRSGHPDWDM

[3] = biological target: T2, Clonorchis sinensis omega-class glutathione transferase 1 (CsGSTo1); experiment: biochemical; set-up: DHAR activity inhibition of recombinant CsGSTo, absorbance at 265 nm; Ki from Lineweaver-Burk plots
Method: (§1) We determined the inhibition mode of CsGSTos employing SHG and the anthelminthic drug praziquantel (PZQ; Shinpoong, Seoul, Korea). rCsGSTos (each 100 ng) were preincubated with Dulbecco’s PBS supplemented with 10–1,000 μM PZQ or 10–500 nM SHG for 2 min, after which the reaction was initiated by adding 1 mM GSH and 1 mM DHA. The increase in absorbance of the resulting […] was recorded spectrophotometrically at 265 nm. A set of reactions under identical conditions was done for each inhibitor concentration and for controls. To examine the inhibition mode of the specific active sites, rCsGSTos were preincubated with saturating concentrations of GSH (5 mM) for 2 min before conjugating reaction with varying concentrations of DHA (0.01–5 mM). […] All measurements were independently done in triplicate. Data were analyzed by Lineweaver-Burk plots. GST activity was spectrophotometrically determined employing a panel of substrates (Sigma-Aldrich); 1-chloro-2,4-dinitrobenzene (CDNB; pH 6.5, 340 nm), 1,2-dichloro-4-nitrobenzene (DCNB; pH 7.5, 345 nm), [compound left out] (4-NBC; pH 6.5, 310 nm), [compound left out] acetate (4-NPA; pH 7.0, 400 nm), 4-hydroxy nonenal (pH 7.5, 340 nm), cumene hydroperoxide (CHP; pH 6.5, 340 nm) and ethacrynic acid (pH 7.5, 340 nm). The reactions were recorded for 5 min at 25 °C in 100 mM potassium phosphate buffer (pH 7.2, 200 μl) containing each 4 mM substrate and 4 mM GSH. The formation of ascorbate by the glutathione-dependent DHAR was detected in potassium phosphate buffer (50 mM, pH 7.2) supplemented with 1 mM GSH and 0.25 mM dehydroascorbate (DHA) at 265 nm. Thioltransferase activity was assayed using hydroxylethyl disulfide (HEDS, 2 mM) in potassium phosphate buffer (50 mM, pH 7.2) containing 0.2 mM NADPH, 0.5 mM GSH and 0.5 units of glutathione reductase for 2 min at 340 nm. One unit of enzyme activity was defined as the amount of enzyme that catalyzed the formation of one micromole of product per min in the presence of respective substrates. Vmax and appKm were determined by one site saturation assays in ranges of 0.01–5 mM DHA with 5 mM GSH (saturating concentration). We also used variable concentrations of GSH ranging from 0.01–5.0 mM with 5 mM DHA (saturating concentration). Enzyme activity was monitored by changes of absorbance and was converted to specific activity using a molar extinction coefficient (Δε = 5.3). Non-enzymatic reaction was concomitantly monitored and subtracted from the entire reaction rate. All enzyme assays were independently performed in triplicate at 25 °C. Data were analyzed by best fit algorithm in SigmaPlot10.0.1 (Systat, San Diego, CA, USA). […] SHG might act via nucleophilic attack of the active site cysteine on the cysteinyl sulfur of the SHG to form a mixed disulfide with the DHA/GSH moiety with high affinity. […] PZQ might bind to a site other than the active- and glutathione-binding sites and act allosterically. We determined IC50 values of rCsGSTos against SHG and PZQ at a saturating concentration (IC50SC).

[4] = biological target: T1, Clonorchis sinensis omega-class glutathione transferase 2 (CsGSTo2); experiment: biochemical; set-up: DHAR activity inhibition of recombinant CsGSTo, absorbance at 265 nm; Ki from Lineweaver-Burk plots; conditions: for Ki: non-competitive
Method: as §1

[5] = substrate: O=C1O[C@H]([C@@H](O)CO)C(=O)C1=O; experiment: steady-state DHAR kinetics of purified enzyme (apparent Km); type: biochemical, Clonorchis sinensis; conditions: GSH

O=[N+]([O-])c1ccc(CCl)cc1 [4-NBC, 4-nitrobenzyl chloride]
Specific activity (μmol/min/mg) / rGSTo2 [1]: 0.91 ± 0.24 µmol/min/mg
Specific activity (μmol/min/mg) / rGSTo1 [2]: 1.42 ± 0.09 µmol/min/mg

O=C(C1CCCCC1)N1CC(=O)N2CCc3ccccc3C2C1 (centres unmarked) [PZQ, praziquantel]
IC50 [3]: 108.4 ± 0.8 µM
Ki ([3]; ligand binding site (varied GSH), non-competitive): 46.8 µM
Ki ([3]; specific active site (varied DHA), non-competitive): 44.1 µM
IC50 [4]: 116.8 ± 0.7 µM
Ki ([4]; ligand binding site (varied GSH)): 42.8 µM
Ki ([4]; specific active site (varied DHA)): 38.2 µM

CCCCCCSC[C@H](NC(=O)CC[C@H](N)C(=O)O)C(=O)NCC(=O)O [SHG, S-hexylglutathione]
Ki [3]: 0.00063 µM

B1: Clonorchis sinensis omega-class glutathione transferase 1 (CsGSTo1) (Clonorchis sinensis) (protein)
chain: MPTCSKHLRQGDPKPDINPNHYTLFGNRICPFVERVRYTLQYHGIEFDSIHIALDAKPDWFLEISPTGKVPLFLTNDGQMIVESDVIMRFVDKMKGEKTSLLSVCGEEDFQKACELSSELSGTIHPVAFRGHTGKDAEEAILNACLKINSAIKGTYLAGPKLSLADLVMFPFVDRLEVALSVLKGTDPSEVEEFKPNDPTGKQWPVLLEYLLRMRELPFVAQVRTSAQAKARIAATIRSGHPDWDM
notes: full-length recombinant (246 amino acids), His-tag removed; GenBank KX163088
Km [5]: 210 ± 20 µM
Vmax [5]: 1.16 ± 0.02 µmol/min/mg
kcat [5]: 0.48 s⁻¹
kcat/Km [5]: 2290 M⁻¹ s⁻¹

B2: Clonorchis sinensis omega-class glutathione transferase 2 (CsGSTo2) (Clonorchis sinensis) (protein)
chain: MCYLGDAGTVSRHLKAGDPEPSVDENKFTLLGFLFCPFCDRVRLTLNYHKIEYEQILVSLYDKPEWFTNLSPSGKVPLLLNRGDRLSESDLIMRFVDELRGPDASLLKVCGLEKFNEAAELSTKVSDAAPVFKHVRRDQLSLADLVLFPMIDRLEVILCQLNGQPPESVAEFKPDHSVEYPALVNYLSRLRQISWIAANRQPLRVVSLFCASVRAGKPNLEIA
notes: full-length recombinant (223 amino acids), His-tag removed; GenBank KX163089
Km [5]: 170 ± 20 µM
Vmax [5]: 1.08 ± 0.02 µmol/min/mg
kcat [5]: 0.43 s⁻¹
kcat/Km [5]: 2530 M⁻¹ s⁻¹
